Tested on: ovariectomized (OVX) rat skeleton
Assay: Continuous combination therapy protocol in OVX rats, pQCT of femur
Assay type: in vivo, Sprague-Dawley (S-D) female rats
Settings: 4 weeks treatment, EP4 agonist 0.3 mg/kg/d by Alzet pump, E2 0.01 mg/kg/d by pellets
Description: Prostaglandin E2 (PGE2) restores bone mass by stimulating both bone formation and bone resorption but in favor of bone formation in ovariectomized (OVX) rat skeleton. 5-(3-{2S-[3R-Hydroxy-4-(3-trifluoromethyl-phenyl)-butyl}-5-oxo-pyrrolidin-1-yl}-propyl)-thiophene-2-carboxylic acid, an EP4 receptor selective agonist, can mimic PGE2's systemic bone anabolic effects when given by daily subcutaneous injection. However, like PGE2, slow release delivery of 5-(3-{2S-[3R-hydroxy-4-(3-trifluoromethyl-phenyl)-butyl}-5-oxo-pyrrolidin-1-yl}-propyl)-thiophene-2-carboxylic acid, by Alzet pump may cause bone loss by stimulating both bone resorption and bone formation but in favor of bone resorption in OVX rat skeleton. Estrogen (17-βestradiol) inhibits bone resorption and turnover, thus preventing bone loss in OVX rats. […] Sprague-Dawley (S-D) female rats were sham-operated (n=20) or OVX (n=50) at 3.5 months of age. Three and an half months post-surgery, OVX rats were treated with either vehicle, 5-(3-{2S-[3R-hydroxy-4-(3-trifluoromethyl-phenyl)-butyl}-5-oxo-pyrrolidin-1-yl}-propyl)-thiophene-2-carboxylic acid at 0.3 mg/kg/d (by Alzet pumps in subcutaneous area, […] release rate, for duration of 14 days, replace the pumps at day 15), or 17-βestradiol (E2) at 0.01 mg/kg/d (administered by 30 day release pellets), or combined 5-(3-{2S-[3R-hydroxy-4-(3-trifluoromethyl-phenyl)-butyl}-5-oxo-pyrrolidin-1-yl}-propyl)-thiophene-2-carboxylic acid at 0.3 mg/kg/d (by Alzet pumps in subcutaneous area, […] release rate, for duration of 28 days) and 17-βestradiol (E2) at 0.01 mg/kg/d (administered by 30 day release pellets) for 4 weeks. Total mineral density and cortical bone area of distal femoral metaphysis and femoral shaft were determined by peripheral […] computerized tomography (pQCT) as described previously (Ke H. Z. et al., Lasofoxifene protects against the age-related changes in bone mass, bone strength, and total serum cholesterol in intact aged male rats. J. of Bone and Mineral Research, 2001;16:765-773).

## O=C(O)c1ccc(CCCN2C(=O)CC[C@@H]2CC[C@@H](O)Cc2cccc(C(F)(F)F)c2)s1 [5-(3-{2S-[3R-Hydroxy-4-(3-trifluoromethyl-phenyl)-butyl]-5-oxo-pyrrolidin-1-yl}-propyl)-thiophene-2-carboxylic acid]
  change in cortical bone area of distal femoral metaphysis compared with OVX controls: −15%
  change in cortical bone area of femoral shaft compared with OVX controls: no significant change
  change in total mineral density of distal femoral metaphysis compared with OVX controls: −15%
  change in total mineral density of femoral shaft compared with OVX controls: no significant change

## C[C@]12CC[C@@H]3c4ccc(O)cc4CC[C@H]3[C@@H]1CC[C@@H]2O [17-βestradiol (E2), 17β-estradiol]
  change in cortical bone area of distal femoral metaphysis compared with OVX controls: did not cause significant change
  change in cortical bone area of femoral shaft compared with OVX controls: no significant change
  change in total mineral density of distal femoral metaphysis compared with OVX controls: did not cause significant change
  change in total mineral density of femoral shaft compared with OVX controls: no significant change

Source: patent publication US20070191319A1, “Treatment of conditions that present with low bone mass by continuous combination therapy with selective prostaglandin ep4 receptor agonists and an estrogen” (Pfizer Inc., priority 2003, published 2007)
